Data on 2 compounds can be found in paper PMC8999917, “Structure–Activity Relationship of Synthetic Ginkgolic Acid Analogs for Treating Type 2 Diabetes by PTPN9 Inhibition” (International Journal of Molecular Sciences, 2022).

The target in this experiment is T1, DUSP9 (Homo sapiens, UniProt Q99956).
T1 construct: made in house; host or cells: Escherichia coli Rosetta (DE3)
T1 sequence (Q99956 1-384): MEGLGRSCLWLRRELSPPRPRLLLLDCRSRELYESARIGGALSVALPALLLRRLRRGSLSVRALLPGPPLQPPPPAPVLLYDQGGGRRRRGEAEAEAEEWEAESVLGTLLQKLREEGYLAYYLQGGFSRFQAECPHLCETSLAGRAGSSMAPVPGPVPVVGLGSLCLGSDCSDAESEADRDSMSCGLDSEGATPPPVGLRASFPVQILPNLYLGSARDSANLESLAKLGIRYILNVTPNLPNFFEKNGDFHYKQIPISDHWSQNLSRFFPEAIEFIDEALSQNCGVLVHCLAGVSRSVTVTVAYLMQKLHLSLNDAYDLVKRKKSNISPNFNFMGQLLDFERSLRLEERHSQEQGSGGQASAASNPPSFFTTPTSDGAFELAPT
Briefly: DUSP9 enzyme inhibition with DiFMUP substrate. It counts as biochemical. To be noted: DiFMUP 90 µM, DUSP9 200 nM; NA: no activity. The procedure:
The purification and kinetic analyses of PTPN9 and DUSP9 (Ser277–581) were performed following methods described in the literature, with slight modifications. PAGE analysis data and enzyme kinetic constants are presented in Figure S1 and Table S1, respectively. Enzyme activity in the presence or absence of the compounds was measured using DiFMUP, a representative PTP fluorogenic substrate. First, the inhibitory effects of compounds 1–3 were evaluated using 50 µM PTPN9 and 20 µM DUSP9. There was an increase in the inhibitory activity of compound 1 for both enzymes as the number of CH2 units increased from 9 to 14 (Figure 2A,B).
Next, the IC50 values of the compounds, which induce a 50% inhibition of DiFMUP hydrolytic enzyme activity, were determined (Table 1). The IC50 values were determined from the dose–response enzyme inhibition curves of each compound. The dose–response curves for compounds 1e and 1f against PTPN9 and DUSP9, respectively, are presented in Figure 2C,D. Dose–response curves were also obtained for the other compounds (Figures S2 and S3).
The methods employed for PTP overexpression and purification have been described in a previous study. In brief, human PTPN9 and DUSP9 were cloned into a pET28a vector (Merk Millipore, Darmstadt, Germany) containing a hexahistidine (His6) tag or a maltose-binding protein (MBP) tag in its N-terminus (see Supplementary Materials). Recombinant genes were separately transformed into Escherichia coli Rosetta (DE3) (Merk Millipore, Darmstadt, Germany), and the overexpression of each gene was induced via the addition of 0.1 mM IPTG (Ducherfa Biochemie, Haarlem, RV, USA). After 16 h of incubation at 18 °C, cell pellets were obtained via centrifugation (3570× g at 4 °C for 15 min), resuspended in lysis buffer (50 mM Tris, pH: 7.5, 500 mM NaCl, 5% glycerol, 0.025% 2-mercaptoethanol, and 1 mM phenyl-methylsulfonyl fluoride (PMSF)), and lysed by ultrasonication. Subsequently, cell lysates were centrifuged at 29,820× g for 30 min at 4 °C; then, the supernatant was collected and incubated with a cobalt affinity resin (TALON® Metal Affinity Resin, Takara Korea, Seoul, Korea). After 1 h of incubation at 4 °C, the desired proteins were eluted by adding the lysis buffer supplemented with 100 mM imidazole. Samples were stored at –80 °C until use.
The enzymatic activities of purified PTPN9 and DUSP9 were measured using 6,8-difluoro-4-methylumbelliferyl phosphate (DiFMUP), the most widely used fluorogenic PTP substrate in the literature. To determine KM values, PTPN9 (0.15 nM) and DUSP9 (200 nM) were added to a reaction buffer (20 mM Bis-tris, pH: 7.0, 150 mM NaCl, 2.5 mM dithiothreitol (DTT), and 0.01% Triton X-100) containing DiFMUP (800, 400, 200, 100, 50, 25, 12.5, or 6.25 μM) in a 96-well black plate. The final reaction volume was 100 µL. The fluorescence intensity was continuously monitored for 10 min (Ex/Em = 355/460 nm) on a Victor™ X4 multilabel plate reader (Perkin Elmer, Norwalk, CT, USA). KM values were obtained using Lineweaver–Burk plots analysis.
To evaluate the enzyme inhibitory effects of GA and its analogs, 10 µl of the enzyme stock solution (1.5 nM PTPN9 and 2 µM DUSP9) in the reaction buffer was added into the mixture of DiFMUP (to a final concentration of 220 µM and 90 µM for PTPN9 and DUSP9, respectively) and each compound (to a final concentration of 50 µM and 20 µM for PTPN9 and DUSP9, respectively) was added to the reaction buffer. Enzyme activity was measured as described above. Half-inhibitory concentration (IC50) values were determined under similar conditions, except for the concentrations of the inhibitors (200, 100, 50, 25, 12.5, 6.25, or 3.125 µM for PTPN9 and 25, 12.5, 6.25, 3.125, 1.563, 0.782, or 0.391 µM for DUSP9). The dose-dependent curve was fitted to the four-parameter logistic regression equation, (y = a + (b – a)/(1 + (x/c)^d), to obtain IC50 values using the Kaleida Graph software Ver. 4.1.3. (Synergy Software Inc, PA, USA).

What is called IC50 is the midpoint of a concentration-inhibition curve.

Turning to `CCCCCCCCCCCCCOc1cccc(O)c1C(=O)O` [Compound 1e], the concentration for half-maximal inhibition (IC50) was determined as 6.4 ± 0.87 µM.

Regarding `CCCCCCCCCCCCCCCOc1cccc(O)c1C(=O)O` [Compound 1f], the IC50 worked out at 5.87 ± 0.55 µM.
